Reference: ChEMBL document CHEMBL5244237, “Recent developments of small molecules targeting RNA m6A modulators” (Eur J Med Chem, 2020)
One block for each compound: values may come before it.

Experiments:
[1] = molecular target: T1, Alpha-ketoglutarate-dependent dioxygenase FTO (Homo sapiens, UniProt Q9C0B1)
Description: Inhibition of FTO (unknown origin) (31 to 505 residues) by LC/MS analysis

[2] = test system: MONO-MAC-6; assay: Antiproliferative activity against human MONO-MAC-6 cells; format: functional, cell-based
[3] = molecular target: T1, Alpha-ketoglutarate-dependent dioxygenase FTO; assay: Inhibition of FTO (unknown origin) mediated m6A methylation by HPLC analysis
[4] = molecular target: T1, Alpha-ketoglutarate-dependent dioxygenase FTO; assay: Inhibition of full length human FTO expressed in Escherichia coli BL21(DE3) rosetta by HPLC analysis
[5] = molecular target: T1, Alpha-ketoglutarate-dependent dioxygenase FTO; assay: Displacement of dm6A-containing ssDNA from truncated N-terminal his-tagged human FTO (31 residues) mediated demethylation activity expressed in Escherichia coli BL21(DE3) using ssDNA (5'-ATTGTCA(dm6A)CAGCAGA-FAM-3') as substrate by fluorescence polarization assay

T1 sequence (Q9C0B1 whole entry): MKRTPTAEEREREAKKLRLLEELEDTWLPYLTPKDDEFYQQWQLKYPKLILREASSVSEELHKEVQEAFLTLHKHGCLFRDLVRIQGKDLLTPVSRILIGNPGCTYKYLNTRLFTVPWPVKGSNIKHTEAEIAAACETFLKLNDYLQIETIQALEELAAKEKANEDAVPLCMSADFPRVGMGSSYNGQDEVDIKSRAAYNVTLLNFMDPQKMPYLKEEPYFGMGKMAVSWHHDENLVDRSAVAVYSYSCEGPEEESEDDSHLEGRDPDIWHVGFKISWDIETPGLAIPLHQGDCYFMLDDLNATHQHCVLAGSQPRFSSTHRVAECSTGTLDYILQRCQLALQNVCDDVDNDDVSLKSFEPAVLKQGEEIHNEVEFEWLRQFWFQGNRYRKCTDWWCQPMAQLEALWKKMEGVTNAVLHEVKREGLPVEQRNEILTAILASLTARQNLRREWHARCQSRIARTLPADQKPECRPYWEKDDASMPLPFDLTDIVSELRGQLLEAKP

Structure (SMILES): C[C@@H]1C[C@H]2O[C@@H]2/C=C\C=C\C(=O)Cc2c(Cl)c(O)cc(O)c2C(=O)O1 [RADICICOL]
IC50 [1]: 16 µM

IC50 [3]: 2.6 µM
Structure (SMILES): Cc1noc(C)c1-c1cc(Cl)c(Nc2ccccc2C(=O)NO)c(Cl)c1
IC50 [2]: 0.8 µM

IC50 [4]: 2.6 µM
Structure (SMILES): O=C(O)c1ccnc(C(=O)NS(=O)(=O)c2ccc(C(F)(F)F)cc2)c1

IC50 [5]: 17.4 µM
Structure (SMILES): Cc1ccc(Cl)c(Nc2ccccc2C(=O)O)c1Cl [MECLOFENAMIC ACID]
